From patent US9504676B2, “Molecules inhibiting a metabolic pathway involving the Syk protein tyrosine kinase and method for identifying said molecules” (CENTRE NATIONAL DE LA RECHERCHE SCIENTIFIQUE, priority 2008, dated 2016)
≈ marks a conversion by molar mass, not a printed value.

Experiments:
RBL-2H3 cells = experiment: cells; format: cell-based, rat; conditions: RBL-2H3 cells; for IC50: Rattus norvegicus, read-out: Degran. IC50: concentration inhibiting mast cell degranulation by 50%
Description: These 87 molecules were also tested in vitro to assess the ability thereof to inhibit RBL-2H3 cell degranulation (see table 1).
(§1) • 1) Chemical products and antibodies. A chemical bank of 3000 molecules (a varied subset) was acquired from ChemBridge, Inc. (San Diego, Calif.). Stocks of solutions of small molecules were prepared at a rate of 10 mM in DMSO (dimethylsulphoxide), except for C-13 (methyl 2-{5-[(3-benzyl-4-oxo-2-thioxo-1,3-thiazolidin-5-ylidene)methyl]-2-furyl}benzoate, ChemBridge ID No. 6197026) prepared in DMF (dimethylformamide). Unless specified otherwise, all the reagents were supplied by Sigma. Dinitrophenyl (DNP) hapten was acquired from Calbiochem. Sepharose GammaBind G and all the secondary antibodies were supplied by GE Health Amersham Biosciences. The anti-Syk, anti-Lyn, anti-Btk, anti-PLC-γ1, anti-PLC-γ2, anti-LAT, anti-SLP-76, anti-p38, anti-JNK, anti-Vav, anti-Akt1 and 9E10 antibodies conjugated with HRP were acquired from Santa Cruz Biotechnology. The anti-phospho-p44/42 MAP Kinase, anti-p44/42 MAP Kinase, anti-phospho-p38, anti-phospho-JNK, anti-phospho-Akt1 antibodies were acquired from Cell Signaling. The anti-phospho-LAT and anti-phospho-PLC-γ1 antibodies were supplied by Biosource and the anti-phospho-SLP-76 antibodies by BD Pharmingen. The 4G10 anti-phosphotyrosine monoclonal antibody was acquired from Upstate Biotechnology. • 2) ADA method: ELISA type high-speed molecule screening test, based on antibody displacement (WO 2005106481). The recombinant fusion protein GST:Syk 6-242^8 comprising the residues 6 to 242 of murine Syk tyrosine kinase protein illustrated in FIG. 8B (SEQ ID No. 4) was immobilised on an ELISA plate at a final concentration of 10 μg ml^−1. For the screening of the chemical molecule bank, the small molecules, diluted in PBS at a final concentration of 10 μM were added to the wells for one hour at ambient temperature, before adding the fragment scFv G4G11 at a final concentration of 100 nM for an additional hour. The binding of G4G11 with Syk was assessed by adding the 9E10 monoclonal antibody conjugated with HRP detecting the amino acid sequence EQKLISEEDLN of human c-myc protein located at the C-terminal end of the scFv fragment. To generate Syk mutants, targeted mutagenesis was used on GST:Syk 6-242 protein and the binding of G4G11 with the mutants was assessed in the presence of 5 μM of C-13. • 3) Cells, culture conditions and functional tests. Anti-DNP 2682-I mouse monoclonal antibody was used as the culture supernatant of hybridomas containing 1 μg/ml of IgE. Femoral bone marrow cells were sampled and cultured in Opti-MEM medium (Gibco) supplemented with 10% foetal calf serum and 4% X63 transfectant supernatant secreting murine IL-3. RBL-2H3 (ATCC) leukaemic rat basophil cells were maintained in a single-layer culture in RPMI 1640 medium supplemented with 10% foetal calf serum (Gibco). Measurements of β-hexosaminidase released by the RBL-2H3 cells were performed as described previously^7, except that, after 12-16 hours of incubation with anti-DNP IgE (0.5 μg/ml), the cells were incubated for 90 min at 37° C. in RPMI medium supplemented with the specified concentrations of C-13 or DMF (0.25%). The cells were stimulated for 45 min with DNP-BSA (50 ng ml^−1) or ionomycin (1.5 μM). The BMMC cells were incubated for one hour at 37° C. with anti-DNP IgE (100 ng/ml). They were then incubated with C-13 (3 μM) or DMF (0.3%) for 3 hours at 37° C., and stimulated with varied concentrations of DNP-BSA. The level of β-hexosaminidase released was measured 10 min later and the TNF-α titration was performed by means of a cytotoxicity test on L929 cells as described previously^10, 3 hours after stimulation. The results illustrated in FIG. 3 are representative of three independent experiments. • 4) Immunoprecipitations, in vitro kinase assays and immunodetection. […]

[1] = biological target: T1, murine Syk tyrosine kinase protein (GST:Syk 6-242) (Mus musculus, UniProt P48025); experiment: ADA method: displacement of the binding of scFv G4G11 with Syk (ELISA); conditions: small molecules at 10 μM, scFv G4G11 100 nM; for inhibition at 10 µM: read-out: In vit. inhib.: mean inhibition % of the binding of scFv G4G11 with Syk in the ADA method
T1 construct: made in house
Description: The term “percentage of inhibition” of the binding of an antibody or antibody fragment with Syk protein, particularly refers to the ratio […], where A consists of the intensity of a signal proportional to the quantity of an antibody or antibody fragment bound with Syk protein in the absence of a molecule according to the invention and B the intensity of the same signal in the presence of a molecule according to the invention under the same conditions. […] This test may be performed for example according to the protocol described in example 3-2) hereinafter.
The inventors developed the ADA (Antigen Displacement Assay) method to identify small molecules capable of displacing the association with scFv G4G11 with Syk. […] To understand the mode of action of C-13, the inventors firstly identified the binding site of G4G11 using the SPOT method^16. An epitope located on the N-terminal SH2 domain of Syk, comprising amino acids 65-74 and 100% preserved in mouse, rat and human sequences, was identified.
The ADA method was then applied to each of these […] molecules to measure the ability thereof to inhibit the binding of scFv G4G11 with Syk.
as §1, with “(Gibco).” for “(Gibco). Measurements of β-hexosaminidase released by the RBL-2H3 cells were performed as described previously^7, except that, after 12-16 hours of incubation with anti-DNP IgE (0.5 μg/ml), the cells were incubated for 90 min at 37° C. in RPMI medium supplemented with the specified concentrations of C-13 or DMF (0.25%). The cells were stimulated for 45 min with DNP-BSA (50 ng ml^−1) or ionomycin (1.5 μM). The BMMC cells were incubated for one hour at 37° C. with anti-DNP IgE (100 ng/ml). They were then incubated with C-13 (3 μM) or DMF (0.3%) for 3 hours at 37° C., and stimulated with varied concentrations of DNP-BSA. The level of β-hexosaminidase released was measured 10 min later and the TNF-α titration was performed by means of a cytotoxicity test on L929 cells as described previously^10, 3 hours after stimulation. The results illustrated in FIG. 3 are representative of three independent experiments. • 4) Immunoprecipitations, in vitro kinase assays and immunodetection.”

SMILES: COc1ccc(C2C(C(=O)c3ccc(Cl)cc3)=C(O)C(=O)N2CCN2CCOCC2)cc1OC (stereo not shown) [Molecule 36, 4-(4-chlorobenzoyl)-5-(3,4-dimethoxyphenyl)-3-hydroxy-1-[2-(4-morpholinyl)ethyl]-1,5-dihydro-2H-pyrrol-2-one]
- Degran. IC50: concentration inhibiting mast cell degranulation by 50% (RBL-2H3 cells): >10 µg/mL
- In vit. inhib.: mean inhibition % of the binding of scFv G4G11 with Syk in the ADA method [1]: 50%

SMILES: CN(C)S(=O)(=O)c1ccc(C(=O)C2=C(O)C(=O)N(CCCN3CCOCC3)C2c2cccnc2)cc1 (stereo not shown) [Molecule 65, 4-{[4-hydroxy-1-[3-(4-morpholinyl)propyl]-5-oxo-2-(3-pyridinyl)-2,5-dihydro-1H-pyrrol-3-yl]carbonyl}-N,N-dimethylbenzenesulphonamide]
- IC50 (RBL-2H3 cells): > 10 µg/mL
- inhibition at 10 µM [1]: 37%

SMILES: COc1cccc(C2C(C(=O)c3ccc(C)o3)=C(O)C(=O)N2CCN2CCOCC2)c1 (stereo not shown) [Molecule 53, 3-hydroxy-5-(3-methoxyphenyl)-4-(5-methyl-2-furoyl)-1-[2-(4-morpholinyl)ethyl]-1,5-dihydro-2H-pyrrol-2-one]
- IC50 (RBL-2H3 cells): > 10 µg/mL
- inhibition at 10 µM [1]: 45.5%

SMILES: COc1cccc2cc(C(=O)C3=C(O)C(=O)N(CCCn4ccnc4)C3c3ccccn3)oc12 (stereo not shown) [Molecule 64]
- IC50 (RBL-2H3 cells): > 10 µg/mL
- inhibition at 10 µM [1]: 37.5%

SMILES: CC(C)c1ccc(C2C(C(=O)c3ccc(F)cc3)=C(O)C(=O)N2CCN2CCOCC2)cc1 (stereo not shown) [Molecule 45, 4-(4-fluorobenzoyl)-3-hydroxy-5-(4-isopropylphenyl)-1-[2-(4-morpholinyl)ethyl]-1,5-dihydro-2H-pyrrol-2-one]
- IC50 (RBL-2H3 cells): > 10 µg/mL
- inhibition at 10 µM [1]: 48.5%

SMILES: O=C(C1=C(O)C(=O)N(CCCN2CCOCC2)C1c1ccccc1F)c1ccc2c(c1)OCO2 (stereo not shown) [Molecule 68, 4-(1,3-benzodioxol-5-ylcarbonyl)-5-(2-fluorophenyl)-3-hydroxy-1-[3-(4-morpholinyl)propyl]-1,5-dihydro-2H-pyrrol-2-one]
- IC50 (RBL-2H3 cells): ~10 µg/mL (≈ 21.3 µM)
- inhibition at 10 µM [1]: 30%

SMILES: O=C(C1=C(O)C(=O)N(CCCN2CCOCC2)C1c1ccncc1)c1ccc2c(c1)OCCO2 (stereo not shown) [Molecule 83, 4-(2,3-dihydro-1,4-benzodioxin-6-ylcarbonyl)-3-hydroxy-1-[3-(4-morpholinyl)propyl]-5-(4-pyridinyl)-1,5-dihydro-2H-pyrrol-2-one]
- IC50 (RBL-2H3 cells): ~10 µg/mL (≈ 21.5 µM)
- inhibition at 10 µM [1]: 19%

SMILES: COc1ccccc1C1C(C(=O)c2cc(C)ccc2C)=C(O)C(=O)N1CCN1CCOCC1 (stereo not shown) [Molecule 7, 4-(2,5-dimethylbenzoyl)-3-hydroxy-5-(2-methoxyphenyl)-1-[2-(4-morpholinyl)ethyl]-1,5-dihydro-2H-pyrrol-2-one]
- IC50 (RBL-2H3 cells): > 10 µg/mL
- inhibition at 10 µM [1]: 72%

SMILES: O=C(C1=C(O)C(=O)N(Cc2cccnc2)C1c1cccc(Oc2ccccc2)c1)c1ccc(F)cc1 (stereo not shown) [Molecule 9, 4-(4-fluorobenzoyl)-3-hydroxy-5-(3-phenoxyphenyl)-1-(3-pyridinylmethyl)-1,5-dihydro-2H-pyrrol-2-one]
- IC50 (RBL-2H3 cells): > 10 µg/mL
- inhibition at 10 µM [1]: 71%

SMILES: COc1ccc(C)cc1NC(=O)CN(c1ccc(C)cc1)S(=O)(=O)c1ccc(OC)c(OC)c1 [Molecule 42]
- IC50 (RBL-2H3 cells): > 10 µg/mL
- inhibition at 10 µM [1]: 49%

SMILES: COc1ccc(C2C(C(=O)c3ccc(C)cc3)=C(O)C(=O)N2CCN2CCOCC2)c(OC)c1 (stereo not shown) [Molecule 34]
- IC50 (RBL-2H3 cells): > 10 µg/mL
- inhibition at 10 µM [1]: 50%

SMILES: CN(C)CCCN1C(=O)C(O)=C(C(=O)c2ccc(S(=O)(=O)N(C)C)cc2)C1c1ccc(Cl)c(Cl)c1 (stereo not shown) [Molecule 50, 4-({2-(3,4-dichlorophenyl)-1-[3-(dimethylamino)propyl]-4-hydroxy-5-oxo-2,5-dihydro-1H-pyrrol-3-yl}carbonyl)-N,N-dimethylbenzenesulphonamide]
- IC50 (RBL-2H3 cells): > 10 µg/mL
- inhibition at 10 µM [1]: 46.5%

SMILES: CSc1nnc2c(n1)OC(c1cccc(OCc3ccccc3)c1)N(C(C)=O)c1ccccc1-2 (stereo not shown) [Molecule 63, 7-acetyl-6-[3-(benzyloxy)phenyl]-3-(methylthio)-6,7-dihydro [1,2,4] triazino[5,6-d][3,1] benzoxazepine]
- IC50 (RBL-2H3 cells): ~5 µg/mL (≈ 10.6 µM)
- inhibition at 10 µM [1]: 38.5%

SMILES: COC(=O)c1sc(N2C(=O)C(O)=C(C(=O)c3ccccc3)C2c2ccc(C)cc2)nc1C (stereo not shown) [Molecule 16, methyl 2-[3-benzoyl-4-hydroxy-2-(4-methylphenyl)-5-oxo-2,5-dihydro-1H-pyrrol-1-yl]-4-methyl-1,3-thiazole-5-carboxylate]
- IC50 (RBL-2H3 cells): > 10 µg/mL
- inhibition at 10 µM [1]: 67%
